Assay results as given in ChEMBL document CHEMBL3638922, “2-amino-3-sulphonyl-tetrahydro-pyrazolo[1,5-A]pyrido-pyrimidine antagonists of serotonin 5-HT6 receptors, methods for the production and use thereof” (2013).

Molecular target: 5-hydroxytryptamine receptor 6 (Homo sapiens, UniProt P50406)
Assay: Radioligand Binding Assay: The screening of the disclosed compounds for their potential ability to interact with serotonin 5-HT6 receptors was carried out b the method of radioligand binding.

5-hydroxytryptamine receptor 6, sequence (P50406 whole entry): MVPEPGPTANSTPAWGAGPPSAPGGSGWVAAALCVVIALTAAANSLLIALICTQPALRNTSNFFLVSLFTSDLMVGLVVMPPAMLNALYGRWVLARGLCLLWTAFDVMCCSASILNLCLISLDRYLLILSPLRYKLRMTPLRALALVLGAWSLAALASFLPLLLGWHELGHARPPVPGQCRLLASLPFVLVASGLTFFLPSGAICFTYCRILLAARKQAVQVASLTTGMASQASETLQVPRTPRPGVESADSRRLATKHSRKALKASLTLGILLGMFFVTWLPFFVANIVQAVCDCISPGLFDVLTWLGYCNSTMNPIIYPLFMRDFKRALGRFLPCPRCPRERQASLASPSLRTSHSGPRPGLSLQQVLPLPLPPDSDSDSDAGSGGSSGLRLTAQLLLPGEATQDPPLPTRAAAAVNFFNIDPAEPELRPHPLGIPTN

SMILES: CNc1nn2cc3c(nc2c1S(=O)(=O)c1ccccc1)CCN(C)C3
- IC50: 7.02 nM
- Ki: 3.26 nM

SMILES: CNc1nn2c3c(cnc2c1S(=O)(=O)c1ccccc1)CN(C)CC3
- IC50: 0.837 nM
